Experimental data as given in ChEMBL document CHEMBL5303573, “Mapping human microbiome drug metabolism by gut bacteria and their genes” (Nature, 2019).

Assays:
[1] = The drug is tested on Bifidobacterium longum subsp. Infantis strain: CCUG52486 for biotransformation. The drug concentrations were measured before and after a 12-h incubation by liquid-chromatography-coupled mass spectrometry (LC–MS); conditions: 2 µM
[2] = The drug is tested on Bifidobacterium ruminantium strain: fecal isolate for biotransformation. The drug concentrations were measured before and after a 12-h incubation by liquid-chromatography-coupled mass spectrometry (LC–MS); conditions: 2 µM
[3] = The drug is tested on Collinsella aerofaciens strain: ATCC25986 for biotransformation. The drug concentrations were measured before and after a 12-h incubation by liquid-chromatography-coupled mass spectrometry (LC–MS); conditions: 2 µM
[4] = The drug is tested on Collinsella intestinalis strain: DSM13280 for biotransformation. The drug concentrations were measured before and after a 12-h incubation by liquid-chromatography-coupled mass spectrometry (LC–MS); conditions: 2 µM
[5] = The drug is tested on Bacteroides dorei strain: DSM17855 for biotransformation. The drug concentrations were measured before and after a 12-h incubation by liquid-chromatography-coupled mass spectrometry (LC–MS); conditions: phocaeicola dorei, 2 µM
[6] = The drug is tested on Bacteroides fragilis strain: ATCC43859 for biotransformation. The drug concentrations were measured before and after a 12-h incubation by liquid-chromatography-coupled mass spectrometry (LC–MS); conditions: 2 µM
[7] = The drug is tested on Bacteroides pectinophilus strain: ATCC43243 for biotransformation. The drug concentrations were measured before and after a 12-h incubation by liquid-chromatography-coupled mass spectrometry (LC–MS); conditions: 2 µM
[8] = The drug is tested on Clostridium asparagiforme strain: DSM15981 for biotransformation. The drug concentrations were measured before and after a 12-h incubation by liquid-chromatography-coupled mass spectrometry (LC–MS); format: ADME; design: dose 2 uM, timepoint 0 vs 12 hours; conditions: enterocloster asparagiformis, 2 µM
[9] = The drug is tested on Clostridium sp. strain: fecal isolate for biotransformation. The drug concentrations were measured before and after a 12-h incubation by liquid-chromatography-coupled mass spectrometry (LC–MS); conditions: 2 µM
[10] = The drug is tested on Clostridium ramosum strain: DSM1402 for biotransformation. The drug concentrations were measured before and after a 12-h incubation by liquid-chromatography-coupled mass spectrometry (LC–MS); conditions: thomasclavelia ramosa, 2 µM
[11] = The drug is tested on Clostridium sporogenes strain: ATCC15579 for biotransformation. The drug concentrations were measured before and after a 12-h incubation by liquid-chromatography-coupled mass spectrometry (LC–MS); conditions: 2 µM
[12] = The drug is tested on Coprococcus comes strain: ATCC27758 for biotransformation. The drug concentrations were measured before and after a 12-h incubation by liquid-chromatography-coupled mass spectrometry (LC–MS); format: ADME; design: dose 2 uM, timepoint 0 vs 12 hours; conditions: 2 µM
[13] = The drug is tested on Eubacterium rectale strain: ATCC33656 for biotransformation. The drug concentrations were measured before and after a 12-h incubation by liquid-chromatography-coupled mass spectrometry (LC–MS); conditions: agathobacter rectalis, 2 µM
[14] = The drug is tested on Escherichia coli strain: BW25113 for biotransformation. The drug concentrations were measured before and after a 12-h incubation by liquid-chromatography-coupled mass spectrometry (LC–MS); conditions: 2 µM
[15] = The drug is tested on Providencia stuartii strain: ATCC25827 for biotransformation. The drug concentrations were measured before and after a 12-h incubation by liquid-chromatography-coupled mass spectrometry (LC–MS); conditions: 2 µM
[16] = bacteroides eggerthii, 12 h, 2 µM
Description: The drug is tested on Bacteroides eggerthii strain: DSM20697 for biotransformation. The drug concentrations were measured before and after a 12-h incubation by liquid-chromatography-coupled mass spectrometry (LC–MS)

[17] = bacteroides intestinalis, 12 h, 2 µM
Description: The drug is tested on Bacteroides intestinalis strain: DSM17393 for biotransformation. The drug concentrations were measured before and after a 12-h incubation by liquid-chromatography-coupled mass spectrometry (LC–MS)

[18] = bacteroides thetaiotaomicron, 12 h, 2 µM
Description: The drug is tested on Bacteroides thetaiotaomicron strain: 7330 for biotransformation. The drug concentrations were measured before and after a 12-h incubation by liquid-chromatography-coupled mass spectrometry (LC–MS)

[19] = roseburia intestinalis, 12 h, 2 µM
Description: The drug is tested on Roseburia intestinalis strain: L1-82 for biotransformation. The drug concentrations were measured before and after a 12-h incubation by liquid-chromatography-coupled mass spectrometry (LC–MS)

[20] = segatella copri, 12 h, 2 µM
Description: The drug is tested on Prevotella copri strain: DSM18205 for biotransformation. The drug concentrations were measured before and after a 12-h incubation by liquid-chromatography-coupled mass spectrometry (LC–MS)

Br.COc1ccc2c(c1)[C@]13CCCC[C@@H]1[C@H](C2)N(C)CC3.O [DEXTROMETHORPHAN HYDROBROMIDE]
Bacterial Biotransformation [1]: Compound NOT metabolized
Bacterial Biotransformation [2]: Compound NOT metabolized
Bacterial Biotransformation [3]: Compound NOT metabolized
Bacterial Biotransformation [4]: Compound NOT metabolized
Bacterial Biotransformation [5]: Compound NOT metabolized
Bacterial Biotransformation [6]: Compound NOT metabolized
Bacterial Biotransformation [7]: Compound NOT metabolized
Bacterial Biotransformation [8]: Compound NOT metabolized
Bacterial Biotransformation [9]: Compound NOT metabolized
Bacterial Biotransformation [10]: Compound NOT metabolized
Bacterial Biotransformation [11]: Compound NOT metabolized
Bacterial Biotransformation [12]: Compound NOT metabolized
Bacterial Biotransformation [13]: Compound NOT metabolized
Bacterial Biotransformation [14]: Compound NOT metabolized
Bacterial Biotransformation [15]: Compound NOT metabolized
Bacterial Biotransformation [16]: Compound NOT metabolized
Bacterial Biotransformation [17]: Compound NOT metabolized
Bacterial Biotransformation [18]: Compound NOT metabolized
Bacterial Biotransformation [19]: Compound NOT metabolized

Cc1ccc(S(=O)(=O)NC(=O)NN2CC3CCCC3C2)cc1 (configuration not stated) [GLICLAZIDE]
Bacterial Biotransformation [1]: Compound NOT metabolized
Bacterial Biotransformation [2]: Compound NOT metabolized
Bacterial Biotransformation [3]: Compound NOT metabolized
Bacterial Biotransformation [4]: Compound NOT metabolized
Bacterial Biotransformation [5]: Compound metabolized
Bacterial Biotransformation [6]: Compound metabolized
Bacterial Biotransformation [7]: Compound NOT metabolized
Bacterial Biotransformation [8]: Compound NOT metabolized
Bacterial Biotransformation [9]: Compound NOT metabolized
Bacterial Biotransformation [10]: Compound NOT metabolized
Bacterial Biotransformation [11]: Compound NOT metabolized
Bacterial Biotransformation [12]: Compound NOT metabolized
Bacterial Biotransformation [13]: Compound NOT metabolized
Bacterial Biotransformation [14]: Compound NOT metabolized
Bacterial Biotransformation [15]: Compound NOT metabolized
Bacterial Biotransformation [16]: Compound NOT metabolized
Bacterial Biotransformation [17]: Compound NOT metabolized
Bacterial Biotransformation [18]: Compound NOT metabolized
Bacterial Biotransformation [20]: Compound NOT metabolized
Bacterial Biotransformation [19]: Compound NOT metabolized

COC1=C(OC)C(=O)C(CCCCCCCCCCO)=C(C)C1=O [IDEBENONE]
Bacterial Biotransformation [1]: Compound metabolized
Bacterial Biotransformation [2]: Compound NOT metabolized
Bacterial Biotransformation [3]: Compound NOT metabolized
Bacterial Biotransformation [5]: Compound NOT metabolized
Bacterial Biotransformation [6]: Compound metabolized
Bacterial Biotransformation [7]: Compound NOT metabolized
Bacterial Biotransformation [8]: Compound NOT metabolized
Bacterial Biotransformation [9]: Compound NOT metabolized
Bacterial Biotransformation [10]: Compound NOT metabolized
Bacterial Biotransformation [11]: Compound metabolized
Bacterial Biotransformation [12]: Compound NOT metabolized
Bacterial Biotransformation [13]: Compound NOT metabolized
Bacterial Biotransformation [14]: Compound NOT metabolized
Bacterial Biotransformation [15]: Compound NOT metabolized
Bacterial Biotransformation [16]: Compound NOT metabolized
Bacterial Biotransformation [17]: Compound NOT metabolized
Bacterial Biotransformation [18]: Compound NOT metabolized
Bacterial Biotransformation [20]: Compound NOT metabolized
Bacterial Biotransformation [19]: Compound NOT metabolized

CCC(C)n1ncn(-c2ccc(N3CCN(c4ccc(OCC5COC(Cn6cncn6)(c6ccc(Cl)cc6Cl)O5)cc4)CC3)cc2)c1=O (configuration not stated) [ITRACONAZOLE]
Bacterial Biotransformation [1]: Compound NOT metabolized
Bacterial Biotransformation [2]: Compound NOT metabolized
Bacterial Biotransformation [3]: Compound NOT metabolized
Bacterial Biotransformation [4]: Compound NOT metabolized
Bacterial Biotransformation [5]: Compound NOT metabolized
Bacterial Biotransformation [6]: Compound NOT metabolized
Bacterial Biotransformation [7]: Compound NOT metabolized
Bacterial Biotransformation [8]: Compound NOT metabolized
Bacterial Biotransformation [9]: Compound metabolized
Bacterial Biotransformation [10]: Compound NOT metabolized
Bacterial Biotransformation [11]: Compound NOT metabolized
Bacterial Biotransformation [12]: Compound NOT metabolized
Bacterial Biotransformation [13]: Compound NOT metabolized
Bacterial Biotransformation [14]: Compound NOT metabolized
Bacterial Biotransformation [15]: Compound NOT metabolized
Bacterial Biotransformation [16]: Compound NOT metabolized
Bacterial Biotransformation [17]: Compound NOT metabolized
Bacterial Biotransformation [18]: Compound NOT metabolized
Bacterial Biotransformation [20]: Compound NOT metabolized
Bacterial Biotransformation [19]: Compound NOT metabolized

CCCN1C[C@H](CSC)C[C@@H]2c3cccc4[nH]cc(c34)C[C@H]21.CS(=O)(=O)O [PERGOLIDE MESYLATE]
Bacterial Biotransformation [1]: Compound NOT metabolized
Bacterial Biotransformation [2]: Compound NOT metabolized
Bacterial Biotransformation [3]: Compound NOT metabolized
Bacterial Biotransformation [4]: Compound NOT metabolized
Bacterial Biotransformation [5]: Compound NOT metabolized
Bacterial Biotransformation [6]: Compound NOT metabolized
Bacterial Biotransformation [7]: Compound NOT metabolized
Bacterial Biotransformation [8]: Compound NOT metabolized
Bacterial Biotransformation [9]: Compound NOT metabolized
Bacterial Biotransformation [10]: Compound NOT metabolized
Bacterial Biotransformation [11]: Compound NOT metabolized
Bacterial Biotransformation [12]: Compound NOT metabolized
Bacterial Biotransformation [13]: Compound NOT metabolized
Bacterial Biotransformation [14]: Compound NOT metabolized
Bacterial Biotransformation [15]: Compound NOT metabolized
Bacterial Biotransformation [16]: Compound NOT metabolized
Bacterial Biotransformation [17]: Compound NOT metabolized
Bacterial Biotransformation [18]: Compound NOT metabolized
Bacterial Biotransformation [20]: Compound NOT metabolized
Bacterial Biotransformation [19]: Compound NOT metabolized

O=C1[C@H](CC[C@H](O)c2ccc(F)cc2)[C@@H](c2ccc(O)cc2)N1c1ccc(F)cc1 [EZETIMIBE]
Bacterial Biotransformation [1]: Compound NOT metabolized
Bacterial Biotransformation [2]: Compound NOT metabolized
Bacterial Biotransformation [3]: Compound NOT metabolized
Bacterial Biotransformation [4]: Compound NOT metabolized
Bacterial Biotransformation [5]: Compound NOT metabolized
Bacterial Biotransformation [6]: Compound NOT metabolized
Bacterial Biotransformation [7]: Compound NOT metabolized
Bacterial Biotransformation [8]: Compound NOT metabolized
Bacterial Biotransformation [9]: Compound NOT metabolized
Bacterial Biotransformation [10]: Compound NOT metabolized
Bacterial Biotransformation [11]: Compound metabolized
Bacterial Biotransformation [12]: Compound NOT metabolized
Bacterial Biotransformation [13]: Compound NOT metabolized
Bacterial Biotransformation [14]: Compound NOT metabolized
Bacterial Biotransformation [15]: Compound NOT metabolized
Bacterial Biotransformation [16]: Compound NOT metabolized
Bacterial Biotransformation [18]: Compound NOT metabolized
Bacterial Biotransformation [20]: Compound NOT metabolized
Bacterial Biotransformation [19]: Compound NOT metabolized

CCN(CC)C(=O)C1(c2ccccc2)CC1CN (configuration not stated)
Bacterial Biotransformation [1]: Compound NOT metabolized
Bacterial Biotransformation [2]: Compound NOT metabolized
Bacterial Biotransformation [3]: Compound NOT metabolized
Bacterial Biotransformation [4]: Compound NOT metabolized
Bacterial Biotransformation [5]: Compound NOT metabolized
Bacterial Biotransformation [6]: Compound NOT metabolized
Bacterial Biotransformation [7]: Compound NOT metabolized
Bacterial Biotransformation [8]: Compound NOT metabolized
Bacterial Biotransformation [9]: Compound NOT metabolized
Bacterial Biotransformation [10]: Compound NOT metabolized
Bacterial Biotransformation [11]: Compound NOT metabolized
Bacterial Biotransformation [12]: Compound NOT metabolized
Bacterial Biotransformation [13]: Compound NOT metabolized
Bacterial Biotransformation [14]: Compound NOT metabolized
Bacterial Biotransformation [15]: Compound NOT metabolized
Bacterial Biotransformation [16]: Compound NOT metabolized
Bacterial Biotransformation [17]: Compound NOT metabolized
Bacterial Biotransformation [18]: Compound NOT metabolized
Bacterial Biotransformation [20]: Compound NOT metabolized
Bacterial Biotransformation [19]: Compound NOT metabolized
